Assay results taken from patent publication US20250236608A1, “EGFR INHIBITORS” (Blueprint Medicines Corporation, priority 2022, published 2025).

What was measured:
EGFR L858R = EGFR L858R (Homo sapiens (Human), UniProt P00533, L858R); assay: Biochemical EGFR inhibition assay, EGFR L858R; details: Caliper mobility shift; 1.0 mM ATP or ATP Km; read-out: Enz EGFR_L858R IC50
EGFR (d746-750) = EGFR (d746-750) (Homo sapiens (Human), UniProt P00533, DEL746-750); assay: Biochemical EGFR inhibition assay, EGFR (d746-750); details: Caliper mobility shift; 1.0 mM ATP or ATP Km; read-out: Enz EGFR_Exon19-del746-750 IC50
Chain of EGFR (d746-750) (P00533 other isoform, or with tags, fused parts or gaps del 1-694/del 746-750 limits assumed): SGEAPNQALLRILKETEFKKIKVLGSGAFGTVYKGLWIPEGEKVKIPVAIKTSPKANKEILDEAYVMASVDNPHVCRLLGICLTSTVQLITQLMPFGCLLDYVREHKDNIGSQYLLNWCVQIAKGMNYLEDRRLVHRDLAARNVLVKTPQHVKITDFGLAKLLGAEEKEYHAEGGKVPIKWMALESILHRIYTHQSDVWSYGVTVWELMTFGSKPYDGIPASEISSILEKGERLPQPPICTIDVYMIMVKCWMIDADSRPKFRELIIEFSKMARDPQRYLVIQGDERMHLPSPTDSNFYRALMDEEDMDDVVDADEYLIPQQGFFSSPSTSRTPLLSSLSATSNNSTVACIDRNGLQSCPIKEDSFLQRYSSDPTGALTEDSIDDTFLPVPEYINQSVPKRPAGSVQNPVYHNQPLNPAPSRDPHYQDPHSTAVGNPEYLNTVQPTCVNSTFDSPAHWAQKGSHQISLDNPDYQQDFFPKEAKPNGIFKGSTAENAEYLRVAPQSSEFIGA

[1] = target: pEGFR (Tyr1068) in PC-9 cells (Ex19Del) (Homo sapiens (Human), UniProt P00533, DEL746-750); assay: PC-9 pEGFR AlphaLISA assay; assay type: cell-based; details: 4 hours incubation, p-EGFR (Tyr1068) AlphaLISA, read-out: Ext pEGFR_PC-9 Ex19Del IC50
Chain of pEGFR (Tyr1068) in PC-9 cells (Ex19Del) (P00533 other isoform, or with tags, fused parts or gaps del 746-750): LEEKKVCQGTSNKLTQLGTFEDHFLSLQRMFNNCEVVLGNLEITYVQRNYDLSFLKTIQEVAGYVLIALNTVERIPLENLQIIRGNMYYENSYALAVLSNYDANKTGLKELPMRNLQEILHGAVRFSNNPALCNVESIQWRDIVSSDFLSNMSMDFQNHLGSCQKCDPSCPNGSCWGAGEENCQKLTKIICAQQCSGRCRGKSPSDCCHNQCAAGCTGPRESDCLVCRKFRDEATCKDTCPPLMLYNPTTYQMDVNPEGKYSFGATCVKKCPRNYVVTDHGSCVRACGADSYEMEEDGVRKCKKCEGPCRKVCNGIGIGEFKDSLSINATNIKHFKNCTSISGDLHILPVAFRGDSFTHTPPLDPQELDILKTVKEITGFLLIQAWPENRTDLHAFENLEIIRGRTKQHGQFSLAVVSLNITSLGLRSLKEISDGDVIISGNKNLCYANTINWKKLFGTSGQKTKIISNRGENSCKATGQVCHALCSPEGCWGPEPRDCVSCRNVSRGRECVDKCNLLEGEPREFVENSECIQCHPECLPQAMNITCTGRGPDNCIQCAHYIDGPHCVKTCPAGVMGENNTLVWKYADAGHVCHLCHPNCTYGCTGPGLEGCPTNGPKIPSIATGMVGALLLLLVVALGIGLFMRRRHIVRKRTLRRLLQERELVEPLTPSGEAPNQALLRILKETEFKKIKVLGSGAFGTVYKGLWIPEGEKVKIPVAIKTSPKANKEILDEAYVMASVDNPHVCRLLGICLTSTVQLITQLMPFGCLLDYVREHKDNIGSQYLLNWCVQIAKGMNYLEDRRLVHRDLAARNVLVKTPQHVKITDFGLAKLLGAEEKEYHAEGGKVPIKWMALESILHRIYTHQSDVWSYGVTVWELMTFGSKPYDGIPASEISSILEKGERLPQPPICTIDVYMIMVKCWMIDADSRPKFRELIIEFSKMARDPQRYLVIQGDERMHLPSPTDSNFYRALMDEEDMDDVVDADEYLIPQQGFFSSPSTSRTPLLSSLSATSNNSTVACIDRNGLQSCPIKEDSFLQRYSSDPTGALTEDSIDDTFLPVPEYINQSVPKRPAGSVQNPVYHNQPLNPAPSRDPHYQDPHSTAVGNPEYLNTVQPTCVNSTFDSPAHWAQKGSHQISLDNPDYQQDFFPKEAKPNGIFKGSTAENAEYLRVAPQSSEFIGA
Summary of the method: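 Cells seeded in phenol-free DMEM with 10% FBS adhered overnight at 37° C./5% CO2, then were exposed for 4 hours to a 4-fold, 10-point compound dilution series. After lysis, phospho-EGFR was read by AlphaLISA SureFire Ultra, and IC50 was fitted from percent inhibition versus log concentration.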

Chain of EGFR L858R (P00533 25-1210 L858R): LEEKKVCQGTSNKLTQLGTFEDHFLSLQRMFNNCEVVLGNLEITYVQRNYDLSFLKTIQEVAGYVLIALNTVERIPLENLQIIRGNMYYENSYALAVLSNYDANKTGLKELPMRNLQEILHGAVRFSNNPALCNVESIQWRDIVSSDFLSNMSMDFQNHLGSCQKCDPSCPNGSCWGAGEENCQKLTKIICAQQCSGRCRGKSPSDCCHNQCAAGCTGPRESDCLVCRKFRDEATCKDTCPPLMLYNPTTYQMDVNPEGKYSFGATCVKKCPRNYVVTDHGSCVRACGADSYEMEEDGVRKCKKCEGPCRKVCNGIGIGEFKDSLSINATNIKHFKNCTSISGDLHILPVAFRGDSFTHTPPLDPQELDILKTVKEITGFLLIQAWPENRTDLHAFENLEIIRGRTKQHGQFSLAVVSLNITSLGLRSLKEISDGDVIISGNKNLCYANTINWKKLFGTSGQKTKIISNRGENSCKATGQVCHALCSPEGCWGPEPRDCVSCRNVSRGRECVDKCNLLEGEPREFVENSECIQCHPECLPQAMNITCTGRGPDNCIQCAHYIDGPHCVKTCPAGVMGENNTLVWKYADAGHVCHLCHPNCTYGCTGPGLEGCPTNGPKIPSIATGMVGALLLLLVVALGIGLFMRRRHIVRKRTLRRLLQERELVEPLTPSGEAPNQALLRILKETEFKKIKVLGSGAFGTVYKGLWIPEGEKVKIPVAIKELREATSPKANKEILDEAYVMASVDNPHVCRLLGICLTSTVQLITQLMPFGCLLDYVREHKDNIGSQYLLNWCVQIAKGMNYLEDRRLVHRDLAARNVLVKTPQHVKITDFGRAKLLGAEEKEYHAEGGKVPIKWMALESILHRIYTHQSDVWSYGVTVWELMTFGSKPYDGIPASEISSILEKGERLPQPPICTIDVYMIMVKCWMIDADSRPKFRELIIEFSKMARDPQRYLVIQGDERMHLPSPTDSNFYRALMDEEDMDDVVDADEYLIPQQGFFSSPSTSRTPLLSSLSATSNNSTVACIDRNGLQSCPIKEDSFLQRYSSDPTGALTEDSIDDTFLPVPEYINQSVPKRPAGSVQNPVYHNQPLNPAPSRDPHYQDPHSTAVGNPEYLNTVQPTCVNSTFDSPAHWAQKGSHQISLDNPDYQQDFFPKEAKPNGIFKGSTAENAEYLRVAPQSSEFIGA

COc1cc2ncnc(-c3cn(CC(F)(F)F)nc3-c3ccccc3)c2cc1OC(=O)N1CCN(C)C[C@@H]1C [Example 60, 7-methoxy-4-(3-phenyl-1-(2,2,2-trifluoroethyl)-1H-pyrazol-4-yl)quinazolin-6-yl(S)-2,4-dimethylpiperazine-1-carboxylate]
IC50 (EGFR L858R): 5.1 nM
IC50 (EGFR (d746-750)): 3.6 nM
IC50 [1]: 3.6 nM

COc1cc2ncnc(-c3cn(C)nc3-c3ccccc3)c2cc1NC(=O)c1cnn(C(C)C)c1 [Example 208, 1-isopropyl-N-(7-methoxy-4-(1-methyl-3-phenyl-1H-pyrazol-4-yl)quinazolin-6-yl)-1H-pyazole-4-carboxamide]
IC50 (EGFR L858R): 1.1 nM
IC50 (EGFR (d746-750)): 0.7 nM
IC50 [1]: 1.8 nM

COc1cc2ncnc(-c3cn(C)nc3-c3ccccc3)c2nc1NC(=O)C12CC(C1)C2 [Example 309, N-(7-methoxy-4-(1-methyl-3-phenyl-1H-pyrazol-4-yl)pyrido[3,2-d]pyrimidin-6-yl)bicyclo[1.1.1]pentane-1-carboxamide]
IC50 (EGFR L858R): 3.1 nM
IC50 (EGFR (d746-750)): 1.9 nM
IC50 [1]: 2.8 nM

COc1cc2ncnc(-c3cn(CC(F)F)nc3-c3ccccc3)c2cc1NC(=O)c1cnn(C(C)C)c1 [Example 270, N-(4-(1-(2,2-difluoroethyl)-3-phenyl-1H-pyrazol-4-yl)-7-methoxyquinazolin-6-yl)-1-isopropyl-1H-pyrazole-4-carboxamide]
IC50 (EGFR L858R): 2.1 nM
IC50 (EGFR (d746-750)): 1.4 nM
IC50 [1]: 1.4 nM

CC(C)Oc1cc2ncnc(-c3cn(C)nc3-c3ccccc3)c2cc1OC(C)C [Example 26, 6,7-diisopropoxy-4-(1-methyl-3-phenyl-1H-pyrazol-4-yl)quinazoline]
IC50 (EGFR L858R): 2.9 nM
IC50 (EGFR (d746-750)): 1.6 nM
IC50 [1]: 8 nM

CN(C)CCOc1cc2ncnc(-c3cn(C)nc3-c3ccccc3)c2cc1NC(=O)C12CC(C1)C2 [Example 299, N-(7-(2-(dimethylamino)ethoxy)-4-(1-methyl-3-phenyl-1H-pyrazol-4-yl)quinazolin-6-yl)bicyclo[1.1.1]pentane-1-carboxamide]
IC50 (EGFR L858R): 15.3 nM
IC50 (EGFR (d746-750)): 5.4 nM
IC50 [1]: 7.1 nM

CCOc1cc2ncnc(-c3cn(CC(F)F)nc3-c3ccccc3)c2cc1CO [Example 123, (4-(1-(2,2-difluoroethyl)-3-phenyl-1H-pyrazol-4-yl)-7-ethoxyquinazolin-6-yl)methanol]
IC50 (EGFR L858R): 1.6 nM
IC50 (EGFR (d746-750)): 1 nM
IC50 [1]: 3 nM

COc1cc2ncnc(-c3cn(C)nc3-c3ccccc3)c2nc1NC(=O)[C@]12COC[C@H]1C2 (single isomer, unassigned) [Example 432, (1S,5S)—N-(7-methoxy-4-(1-methyl-3-phenyl-1H-pyrazol-4-yl)pyrido[3,2-d]pyrimidin-6-yl)-3-oxabicyclo[3.1.0]hexane-1-carboxamide or (1R,5R)—N-(7-methoxy-4-(1-methyl-3-phenyl-1H-pyrazol-4-yl)pyrido[3,2-d]pyrimidin-6-yl)-3-oxabicyclo[3.1.0]hexane-1-carboxamide]
IC50 (EGFR L858R): 1.9 nM
IC50 (EGFR (d746-750)): 0.9 nM
IC50 [1]: 2.5 nM

CCC(=O)Nc1cc2c(-c3cnn(C4COC4)c3-c3ccccc3)ncnc2cc1OC [Example 499]
IC50 (EGFR L858R): 17 nM
IC50 (EGFR (d746-750)): 33 nM
IC50 [1]: 495 nM

CCOc1cc2ncnc(-c3cn(C)nc3-c3ccccc3)c2cc1Cn1ncnc1C [Example 134, 7-ethoxy-6-((5-methyl-1H-1,2,4-triazol-1-yl)methyl)-4-(1-methyl-3-phenyl-1H-pyrazol-4-yl)quinazoline]
IC50 (EGFR L858R): 4 nM
IC50 (EGFR (d746-750)): 2.1 nM
IC50 [1]: 11.6 nM

COc1cc2ncnc(-c3cn(C)nc3-c3ccccc3)c2cc1NC(=O)c1cccc(F)c1Cl [Example 199, 2-chloro-3-fluoro-N-(7-methoxy-4-(1-methyl-3-phenyl-1H-pyrazol-4-yl)quinazolin-6-yl)benzamide]
IC50 (EGFR L858R): 1.6 nM
IC50 (EGFR (d746-750)): 1.1 nM
IC50 [1]: 1.9 nM

COc1cc2ncnc(-c3cn(C)nc3-c3ccccc3)c2cc1NC(=O)C12CC(C1)C2 [Example 340, N-(7-methoxy-4-(1-methyl-3-phenyl-1H-pyrazol-4-yl)quinazolin-6-yl)bicyclo[1.1.1]pentane-1-carboxamide]
IC50 (EGFR L858R): 3.3 nM
IC50 (EGFR (d746-750)): 1.6 nM
IC50 [1]: 2.5 nM

COc1cc2ncnc(-c3cn(C)nc3-c3ccccc3)c2cc1N1CC[C@H](F)[C@@H](O)C1 (single isomer, unassigned) [Example 172, (3S,4S)-4-fluoro-1-(7-methoxy-4-(1-methyl-3-phenyl-1H-pyrazol-4-yl)quinazolin-6-yl) piperidin-3-ol or (3R,4R)-4-fluoro-1-(7-methoxy-4-(1-methyl-3-phenyl-1H-pyrazol-4-yl)quinazolin-6-yl) piperidin-3-ol]
IC50 (EGFR L858R): 6.7 nM
IC50 (EGFR (d746-750)): 2.2 nM
IC50 [1]: 11.7 nM

COc1cc2ncnc(-c3cn(C)nc3-c3ccccc3)c2cc1NC(=O)c1ccccc1F [Example 198, 2-fluoro-N-(7-methoxy-4-(1-methyl-3-phenyl-1H-pyrazol-4-yl)quinazolin-6-yl)benzamide]
IC50 (EGFR L858R): 1.3 nM
IC50 (EGFR (d746-750)): 0.8 nM
IC50 [1]: 1.1 nM

CCC(=O)Nc1cc2c(-c3cn(C)nc3-c3ccccc3)ncnc2cc1OCC1COC1 [Example 277, N-(4-(1-methyl-3-phenyl-1H-pyrazol-4-yl)-7-(oxetan-3-ylmethoxy)quinazolin-6-yl)propionamide]
IC50 (EGFR L858R): 3.7 nM
IC50 (EGFR (d746-750)): 1.9 nM
IC50 [1]: 6 nM

COc1cc2ncnc(-c3cn(C)nc3-c3ccccc3)c2cc1NC(=O)c1cnn2c1CCCC2 [Example 226, N-(7-methoxy-4-(1-methyl-3-phenyl-1H-pyrazol-4-yl)quinazolin-6-yl)-4,5,6,7-tetrahydropyrazolo[1,5-a]pyridine-3-carboxamide]
IC50 (EGFR L858R): 1.6 nM
IC50 (EGFR (d746-750)): 1 nM
IC50 [1]: 1.4 nM

Cn1cc(-c2ncnc3cc(C(F)(F)F)c(NC(=O)C45COCC4C5)nc23)c(-c2ccccc2)n1 (stereo not drawn) [Example 488, N-(4-(1-methyl-3-phenyl-1H-pyrazol-4-yl)-7-(trifluoromethyl)pyrido[3,2-d]pyrimidin-6-yl)-3-oxabicyclo[3.1.0]hexane-1-carboxamide]
IC50 (EGFR L858R): 416 nM
IC50 (EGFR (d746-750)): 126 nM
IC50 [1]: 981 nM

Cc1ncsc1C(=O)Nc1cc2c(-c3cn(C)nc3-c3ccccc3)ncnc2cc1OCCN(C)C [Example 303, N-(7-(2-(dimethylamino)ethoxy)-4-(1-methyl-3-phenyl-1H-pyrazol-4-yl)quinazolin-6-yl)-4-methylthiazole-5-carboxamide]
IC50 (EGFR L858R): 11 nM
IC50 (EGFR (d746-750)): 2.9 nM
IC50 [1]: 8.8 nM

[2H]C([2H])([2H])n1cc(-c2ncnc3cc(OC)c(NC(=O)C45CC(N(C)C)(C4)C5)nc23)c(-c2ccccc2)n1 [Example 494]
IC50 (EGFR L858R): 4.4 nM
IC50 (EGFR (d746-750)): 1.2 nM
IC50 [1]: 3.6 nM

COc1cc2ncnc(-c3cn(C)nc3-c3ccccc3)c2nc1NC(=O)C1(C(F)(F)F)CC1 [Example 361, N-(7-methoxy-4-(1-methyl-3-phenyl-1H-pyrazol-4-yl)pyrido[3,2-d]pyrimidin-6-yl)-1-(trifluoromethyl)cyclopropane-1-carboxamide]
IC50 (EGFR L858R): 1.6 nM
IC50 (EGFR (d746-750)): 0.9 nM
IC50 [1]: 1.2 nM

COc1cc2ncnc(-c3cn(C)nc3-c3ccccc3)c2cc1C(O)C1CC1 (stereo not drawn) [Example 128, cyclopropyl (7-methoxy-4-(1-methyl-3-phenyl-1H-pyrazol-4-yl)quinazolin-6-yl)methanol]
IC50 (EGFR L858R): 3.6 nM
IC50 (EGFR (d746-750)): 2.5 nM
IC50 [1]: 12.5 nM

CCOc1cc2ncnc(-c3cn(C)nc3-c3ccccc3)c2nc1NC(=O)C12CC(C1)C2 [Example 311, N-(7-ethoxy-4-(1-methyl-3-phenyl-1H-pyrazol-4-yl)pyrido[3,2-d]pyrimidin-6-yl)bicyclo[1.1.1]pentane-1-carboxamide]
IC50 (EGFR L858R): 3.4 nM
IC50 (EGFR (d746-750)): 1.9 nM
IC50 [1]: 2.1 nM

CCn1cc(-c2ncnc3cc(OC)c(N4CCOCC4)cc23)c(-c2ccccc2)n1 [Example 169, 4-(4-(1-ethyl-3-phenyl-1H-pyrazol-4-yl)-7-methoxyquinazolin-6-yl)morpholine]
IC50 (EGFR L858R): 1.7 nM
IC50 (EGFR (d746-750)): 0.9 nM
IC50 [1]: 1.9 nM

COc1cc2ncnc(-c3cn(CCO)nc3-c3ccccc3)c2nc1NC(=O)C12CC(C1)C2 [Example 414, N-(4-(1-(2-hydroxyethyl)-3-phenyl-1H-pyrazol-4-yl)-7-methoxypyrido[3,2-d]pyrimidin-6-yl)bicyclo[1.1.1]pentane-1-carboxamide]
IC50 (EGFR L858R): 2.1 nM
IC50 (EGFR (d746-750)): 1.3 nM
IC50 [1]: 1.2 nM

COc1cc2ncnc(-c3cn(C)nc3-c3ccccc3)c2cc1OC(=O)N1CCN(C)C[C@@H]1C (stereo in doubt) [Example 59, 7-methoxy-4-(1-methyl-3-phenyl-1H-pyrazol-4-yl)quinazolin-6-yl(S)-2,4-dimethylpiperazine-1-carboxylate or 7-methoxy-4-(1-methyl-3-phenyl-1H-pyrazol-4-yl)quinazolin-6-yl (R)-2,4-dimethylpiperazine-1-carboxylate]
IC50 (EGFR L858R): 3.3 nM
IC50 (EGFR (d746-750)): 2 nM
IC50 [1]: 4.2 nM

COc1cc2ncnc(-c3cn(C)nc3-c3ccccc3F)c2cc1NC(=O)c1ccc(C2CC2)nc1 [Example 230, 6-cyclopropyl-N-(4-(3-(2-fluorophenyl)-1-methyl-1H-pyrazol-4-yl)-7-methoxyquinazolin-6-yl) nicotinamide]
IC50 (EGFR L858R): 1.5 nM
IC50 (EGFR (d746-750)): 0.9 nM
IC50 [1]: 2.3 nM

CCC(=O)Nc1cc2c(-c3cn(C)nc3-c3ccccc3)ncnc2cc1-n1ccc(C)n1 [Example 450, N-(7-(3-methyl-1H-pyrazol-1-yl)-4-(1-methyl-3-phenyl-1H-pyrazol-4-yl)quinazolin-6-yl)propionamide]
IC50 (EGFR L858R): 1.2 nM
IC50 (EGFR (d746-750)): 0.7 nM
IC50 [1]: 1 nM
